According to patent publication US10344019B2 (priority 2010, dated 2019):

Legend:
Type in all cases: cell-based
[1] = system: HCV 2a Rluc cells (NS5A chimeric genotype 2a JFH-1 replicon with genotype 2a J6 strain NS5A gene, M31 present); assay: HCV replicon reporter assay, genotype 2a J6 (M31 present); details: Hepatitis C virus, read-out: 2a J6
Summary of the method: (§1)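 Replicons used: genotype 1b Con1, 1a H77, 2a JFH-1, and a 2a JFH-1 chimera with J6-strain NS5A (M31 present), all dicistronic.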

[2] = system: HCV 1a RLuc cells (dicistronic genotype 1a H77 replicon, RLuc reporter); assay: microbe, parasite or virus in culture; details: Hepatitis C virus, genotype 1a H77 RLuc replicon; read-out: 1a
Summary of the method: as §1

[3] = system: HCV 2a JFH-1 Rluc cells (dicistronic genotype 2a JFH-1 replicon, RLuc reporter); assay: microbe, parasite or virus in culture; details: Hepatitis C virus, genotype 2a JFH-1 RLuc replicon; read-out: 2a JFH
Summary of the method: as §1

[4] = system: HCV 2b Rluc cells (NS5A chimeric genotype 2a JFH-1 replicon with genotype 2b MD2b-1 NS5A gene, M31 present); assay: microbe, parasite or virus in culture; details: Hepatitis C virus, read-out: 2b
Summary of the method: (§2)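 Replicon cells stably carrying the listed RLuc-encoding dicistronic replicons were seeded and treated with DMSO serial dilutions of compound (10 mM stocks) diluted into culture medium. After 72 h, cells were lysed and Renilla luciferase activity measured. EC50 was derived by non-linear regression.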

[5] = system: HCV 4a Rluc cells (NS5A chimeric genotype 1b Con1 replicon with genotype 4a NS5A gene); assay: microbe, parasite or virus in culture; details: Hepatitis C virus, read-out: 4a
Summary of the method: as §2

[6] = system: HCV 1b RLuc cells (dicistronic genotype 1b Con1 replicon, RLuc reporter); assay: microbe, parasite or virus in culture; details: Hepatitis C virus, read-out: 1b (nM)
Summary of the method: as §1

[7] = system: HCV 3a RLuc cells (NS5A chimeric genotype 1b Con1 replicon with consensus genotype 3a NS5A gene); assay: microbe, parasite or virus in culture; details: Hepatitis C virus, read-out: 3a, genotype 3a NS5A chimeric replicon
Summary of the method: as §2

SMILES	EC50 [1]	EC50 [2]	EC50 [3]	EC50 [4]	EC50 [5]	EC50 [6]	EC50 [7]
O=C(N[C@@H](C(=O)N1CCC[C@H]1c1ncc(-c2cc3c4c(c2)OCc2cc(-c5cnc([C@@H]6CCCN6C(=O)[C@H](NC(=O)C6CCOCC6)c6ccccc6)[nH]5)cc(c2-4)OC3)[nH]1)c1ccccc1)C1CCOCC1 [Example 490]	0.001 to 0.999 nM	1 to 44 nM	0.001 to 0.999 nM	0.001 to 0.999 nM	0.001 to 0.99 nM	0.989 nM	0.001 to 0.99 nM
O=C(N[C@@H](C(=O)N1CCC[C@H]1c1ncc(-c2cc3c4c(c2)OCc2cc(-c5cnc([C@@H]6CCCN6C(=O)[C@H](NC(=O)c6ccncn6)c6ccccc6)[nH]5)cc(c2-4)OC3)[nH]1)c1ccccc1)c1ccncn1 [Example 491]	0.001 to 0.999 nM	0.001 to 0.999 nM	0.001 to 0.999 nM	0.001 to 0.999 nM	0.001 to 0.99 nM	0.066 nM	0.001 to 0.99 nM
O=C(N[C@@H](C(=O)N1CCC[C@H]1c1ncc(-c2cc3c4c(c2)OCc2cc(-c5cnc([C@@H]6CCCN6C(=O)[C@H](NC(=O)c6cncnc6)c6ccccc6)[nH]5)cc(c2-4)OC3)[nH]1)c1ccccc1)c1cncnc1 [Example 492]	> 44 nM	1 to 44 nM	0.001 to 0.999 nM	1 to 44 nM	0.001 to 0.99 nM	0.898 nM	0.001 to 0.99 nM
COC[C@@H]1C[C@@H](c2nc3c([nH]2)-c2cc4c(cc2CC3)-c2ccc(-c3cnc([C@@H]5CCCN5C(=O)[C@@H](NC(=O)OC)C(C)C)[nH]3)cc2CO4)N(C(=O)[C@@H](NC(=O)OC)C(C)C)C1 [Example 493]	> 44 nM	0.001 to 0.999 nM	0.001 to 0.999 nM	0.001 to 0.999 nM	0.001 to 0.99 nM	0.03 nM	0.001 to 0.99 nM
COC(=O)N[C@H](C(=O)N1CCC[C@H]1c1nc2c([nH]1)-c1cc3c(cc1CC2)-c1ccc(-c2cnc([C@@H]4CCCN4C(=O)[C@H](NC(=O)C4CC4)c4ccccc4)[nH]2)cc1CO3)C(C)C [Example 494]	0.001 to 0.999 nM	0.001 to 0.999 nM	0.001 to 0.999 nM	0.001 to 0.999 nM	0.001 to 0.99 nM	0.021 nM	0.001 to 0.99 nM
COC(=O)N[C@@H](C(=O)N1[C@@H]2C[C@@H]2C[C@H]1c1ncc(-c2cc3c4c(c2)OCc2cc(-c5cnc([C@@H]6C[C@H]7C[C@H]7N6C(=O)[C@H](NC(=O)OC)c6ccccc6)[nH]5)cc(c2-4)OC3)[nH]1)c1ccccc1 [Example 496]	0.001 to 0.999 nM	0.001 to 0.999 nM	0.001 to 0.999 nM	0.001 to 0.999 nM	0.001 to 0.99 nM	0.011 nM	0.001 to 0.99 nM
COC[C@H]1C[C@@H](c2nc3ccc4cc(-c5ccc6c(ccc7nc([C@@H]8C[C@H]9C[C@H]9N8C(=O)[C@@H](NC(=O)OC)C(C)C)[nH]c76)c5)ccc4c3[nH]2)N(C(=O)[C@H](NC(=O)OC(C)(C)C)c2ccccc2)C1 [Example 497]	0.001 to 0.999 nM	0.001 to 0.999 nM	0.001 to 0.999 nM	0.001 to 0.999 nM	0.001 to 0.99 nM	0.008 nM	0.001 to 0.99 nM
CCC(=O)N[C@@H](C(=O)N1CCC[C@H]1c1ncc(-c2ccc3c(c2)COc2cc4c(ccc5nc([C@@H]6CCCN6C(=O)[C@@H](NC(=O)OC)C(C)C)[nH]c54)cc2-3)[nH]1)c1ccccc1 [Example 499]	0.001 to 0.999 nM	0.001 to 0.999 nM	0.001 to 0.999 nM	0.001 to 0.999 nM	0.001 to 0.99 nM	0.032 nM	0.001 to 0.99 nM
COC(=O)N[C@H](C(=O)N1[C@@H]2C[C@@H]2C[C@H]1c1ncc(-c2cc3c4c(c2)OCc2cc(-c5cnc([C@@H]6C[C@H]7C[C@H]7N6C(=O)[C@H](NC(=O)OC)c6ccccc6)[nH]5)cc(c2-4)OC3)[nH]1)C(C)C [Example 501]	> 44 nM	0.001 to 0.999 nM	0.001 to 0.999 nM	1 to 44 nM	0.001 to 0.99 nM	0.021 nM	0.001 to 0.99 nM
COC(=O)N[C@H](C(=O)N1CCC[C@H]1c1ncc(-c2ccc3c(c2)COc2cc4c(cc2-3)CCc2nc([C@@H]3CCCN3C(=O)[C@H](NC(=O)C3CC3)c3ccccc3)[nH]c2-4)[nH]1)C(C)C [Example 503]	0.001 to 0.999 nM	0.001 to 0.999 nM	0.001 to 0.999 nM	0.001 to 0.999 nM	0.001 to 0.99 nM	0.041 nM	0.001 to 0.99 nM
COC(=O)N[C@@H](C(=O)N1C[C@@H](C)C[C@H]1c1ncc(-c2cc3c4c(c2)OCc2cc(-c5cnc([C@@H]6C[C@H](C)CN6C(=O)[C@H](NC(=O)OC)c6ccccc6)[nH]5)cc(c2-4)OC3)[nH]1)c1ccccc1 [Example 505]	0.001 to 0.999 nM	0.001 to 0.999 nM	0.001 to 0.999 nM	0.001 to 0.999 nM	0.001 to 0.99 nM	0.019 nM	0.001 to 0.99 nM
COC[C@H]1C[C@@H](c2nc3ccc4cc(-c5ccc6c(ccc7nc([C@@H]8CCCN8C(=O)[C@@H](NC(=O)OC)C(C)C)[nH]c76)c5)ccc4c3[nH]2)N(C(=O)[C@H](NC(=O)C2CC2)c2ccccc2)C1 [Example 508]	0.001 to 0.999 nM	0.001 to 0.999 nM	0.001 to 0.999 nM	0.001 to 0.999 nM	0.001 to 0.99 nM	0.026 nM	0.001 to 0.99 nM
CC[C@H](C)[C@H](NC(=O)OC)C(=O)N1CCC[C@H]1c1nc2ccc3cc(-c4ccc5c(ccc6nc([C@@H]7C[C@H](COC)CN7C(=O)[C@H](NC(=O)OC)c7ccccc7)[nH]c65)c4)ccc3c2[nH]1 [Example 509]	0.001 to 0.999 nM	0.001 to 0.999 nM	0.001 to 0.999 nM	0.001 to 0.999 nM	0.001 to 0.99 nM	0.028 nM	0.001 to 0.99 nM
COC[C@H]1C[C@@H](c2nc3ccc4cc5c(cc4c3[nH]2)OCc2cc(-c3cnc([C@@H]4CCCN4C(=O)[C@H](NC(=O)C4CC4)c4ccccc4)[nH]3)ccc2-5)N(C(=O)[C@@H](NC(=O)OC)C(C)C)C1 [Example 510]	0.001 to 0.999 nM	0.001 to 0.999 nM	0.001 to 0.999 nM	0.001 to 0.999 nM	0.001 to 0.99 nM	0.05 nM	0.001 to 0.99 nM
CC[C@H](C)[C@H](NC(=O)OC)C(=O)N1CCC[C@H]1c1nc2ccc3cc(-c4ccc5c(ccc6nc([C@@H]7C[C@H](COC)CN7C(=O)[C@H](NC(=O)C7CC7)c7ccccc7)[nH]c65)c4)ccc3c2[nH]1 [Example 511]	0.001 to 0.999 nM	0.001 to 0.999 nM	0.001 to 0.999 nM	0.001 to 0.999 nM	0.001 to 0.99 nM	0.019 nM	0.001 to 0.99 nM
COC[C@H]1C[C@@H](c2nc3ccc4cc(-c5ccc6c(ccc7nc([C@@H]8CCCN8C(=O)[C@H](NC(=O)C8CC8)c8ccccc8)[nH]c76)c5)ccc4c3[nH]2)N(C(=O)[C@@H](NC(=O)OC)C(C)C)C1 [Example 512]	0.001 to 0.999 nM	0.001 to 0.999 nM	0.001 to 0.999 nM	0.001 to 0.999 nM	0.001 to 0.99 nM	0.035 nM	0.001 to 0.99 nM
COC[C@H]1C[C@@H](c2ncc(-c3cc4c5c(c3)OCc3cc(-c6cnc([C@@H]7C[C@H](COC)CN7C(=O)[C@@H](NC(=O)OC)C(C)C)[nH]6)cc(c3-5)OC4)[nH]2)N(C(=O)[C@@H](NC(=O)OC)C(C)C)C1 [Example 513]	1 to 44 nM	0.001 to 0.999 nM	0.001 to 0.999 nM	1 to 44 nM	0.001 to 0.99 nM	0.068 nM	0.001 to 0.99 nM
COC(=O)N[C@H](C(=O)N1CCC[C@H]1c1nc2ccc3cc(-c4ccc5c(ccc6nc([C@@H]7C[C@H](COC(F)F)CN7C(=O)[C@@H](NC(=O)OC)C(C)C)[nH]c65)c4)ccc3c2[nH]1)C(C)C [Example 514]	0.001 to 0.999 nM	0.001 to 0.999 nM	0.001 to 0.999 nM	0.001 to 0.999 nM	0.001 to 0.99 nM	0.01 nM	0.001 to 0.99 nM
COC(=O)N[C@H](C(=O)N1CCC[C@H]1c1nc2ccc3cc(-c4ccc5c(ccc6nc([C@@H]7C[C@H](SC)CN7C(=O)[C@@H](NC(=O)OC)C(C)C)[nH]c65)c4)ccc3c2[nH]1)C(C)C [Example 515]	0.001 to 0.999 nM	0.001 to 0.999 nM	0.001 to 0.999 nM	1 to 44 nM	0.001 to 0.99 nM	0.047 nM	0.001 to 0.99 nM
COC(=O)N[C@H](C(=O)N1CCC[C@H]1c1ncc(-c2ccc3c(c2)COc2cc4c(ccc5nc([C@@H]6C[C@H]7C[C@H]7N6C(=O)[C@@H](NC(=O)OC)C(C)C)[nH]c54)cc2-3)[nH]1)C(C)C [Example 518]	1 to 44 nM	0.001 to 0.999 nM	0.001 to 0.999 nM	0.001 to 0.999 nM	0.001 to 0.99 nM	0.01 nM	0.001 to 0.99 nM
COC(=O)N[C@H](C(=O)N1CCC[C@H]1c1nc2ccc3cc(-c4ccc5c(ccc6nc([C@@H]7C[C@H](COC(F)F)CN7C(=O)[C@H](NC(=O)C7CC7)c7ccccc7)[nH]c65)c4)ccc3c2[nH]1)C(C)C [Example 547]	0.001 to 0.999 nM	0.001 to 0.999 nM	0.001 to 0.999 nM	0.001 to 0.999 nM	0.001 to 0.99 nM	0.005 nM	0.001 to 0.99 nM
